The NIST ThermoML archive (doi:10.1016/j.jct.2016.09.007)

Assay: xn = mol fraction of the nth substance listed
Conditions: 93.2 kPa, Liquid; for speed of sound: Frequency=3 MHz, Sing-around technique in a fixed-path interferometer; for mass density: Vibrating tube method

CCCC(=O)[O-].CCCC[NH3+] [n-butylammonium butanoate] + CCCCCO
Conditions | mass density, 293.15 K [kg/m3] | mass density, 298.15 K [kg/m3] | mass density, 303.15 K [kg/m3] | mass density, 308.15 K [kg/m3] | mass density, 313.15 K [kg/m3] | speed of sound, 293.15 K [m/s] | speed of sound, 298.15 K [m/s] | speed of sound, 303.15 K [m/s] | speed of sound, 308.15 K [m/s] | speed of sound, 313.15 K [m/s]
x1 = 0.0504 | 824.946 | 821.27 | 817.568 | 813.834 | 810.063 | 1301.5 | 1284.3 | 1267.3 | 1250.4 | 1233.7
x1 = 0.1004 | 834.049 | 830.391 | 826.701 | 822.985 | 819.232 | 1308.8 | 1291.6 | 1274.6 | 1257.6 | 1240.9
x1 = 0.1491 | 842.19 | 838.55 | 834.886 | 831.191 | 827.462 | 1315.5 | 1298.2 | 1281.2 | 1264.2 | 1247.4
x1 = 0.2025 | 850.502 | 846.885 | 843.247 | 839.579 | 835.881 | 1322.6 | 1305.3 | 1288.2 | 1271.2 | 1254.4
x1 = 0.2513 | 857.492 | 853.902 | 850.29 | 846.65 | 842.977 | 1328.8 | 1311.6 | 1294.5 | 1277.5 | 1260.7
x1 = 0.3007 | 864.133 | 860.568 | 856.983 | 853.372 | 849.736 | 1335 | 1317.8 | 1300.7 | 1283.7 | 1267
x1 = 0.3506 | 870.527 | 866.989 | 863.432 | 859.854 | 856.248 | 1341.3 | 1324.1 | 1307.1 | 1290.2 | 1273.4
x1 = 0.4003 | 876.48 | 872.967 | 869.437 | 865.888 | 862.315 | 1347.5 | 1330.3 | 1313.3 | 1296.4 | 1279.8
x1 = 0.4485 | 881.984 | 878.492 | 874.989 | 871.466 | 867.921 | 1353.3 | 1336.2 | 1319.2 | 1302.4 | 1285.7
x1 = 0.4981 | 887.228 | 883.761 | 880.283 | 876.786 | 873.27 | 1359.2 | 1342.1 | 1325.1 | 1308.3 | 1291.8
x1 = 0.549 | 892.419 | 888.971 | 885.516 | 882.044 | 878.557 | 1365.4 | 1348.2 | 1331.3 | 1314.5 | 1298
x1 = 0.5979 | 897.108 | 893.686 | 890.251 | 886.802 | 883.336 | 1371.3 | 1354.1 | 1337.1 | 1320.3 | 1303.8
x1 = 0.6483 | 901.8 | 898.401 | 894.993 | 891.566 | 888.123 | 1377.6 | 1360.3 | 1343.3 | 1326.5 | 1310
x1 = 0.6971 | 906.089 | 902.72 | 899.338 | 895.935 | 892.514 | 1383.8 | 1366.4 | 1349.3 | 1332.5 | 1315.9
x1 = 0.7444 | 910.065 | 906.721 | 903.359 | 899.982 | 896.583 | 1389.8 | 1372.2 | 1355 | 1338.1 | 1321.6
x1 = 0.7997 | 914.585 | 911.263 | 907.929 | 904.583 | 901.213 | 1397.4 | 1379.5 | 1362 | 1345 | 1328.3
x1 = 0.8466 | 918.226 | 914.903 | 911.586 | 908.265 | 904.921 | 1404.4 | 1386 | 1368.2 | 1350.9 | 1334.1
x1 = 0.901 | 922.256 | 918.92 | 915.606 | 912.298 | 908.979 | 1413 | 1394 | 1375.7 | 1358 | 1341
x1 = 0.9495 | 925.7 | 922.407 | 919.075 | 915.767 | 912.465 | 1421.1 | 1401.3 | 1382.5 | 1364.4 | 1347
x1 = 1 | 928.794 | 925.509 | 922.217 | 918.88 | 915.567 | 1431.5 | 1410.3 | 1390.4 | 1371.5 | 1353.6
